# Measurements: the supplement of paper PMC10307832
# Experiments:
# Assay in all cases: relative viability (nuclei count vs DMSO), 5 days (fraction); higher = more cells survive
# Trametinib + Phenformin = compound: CC(=O)Nc1cccc(-n2c(=O)n(C3CC3)c(=O)c3c(Nc4ccc(I)cc4F)n(C)c(=O)c(C)c32)c1 [Trametinib] + N=C(N)NC(=N)NCCc1ccccc1 [Phenformin] (partner 250 µM)
# Procedure, shortened: (§1)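 Lung cancer cell lines were seeded in 1536-well plates and dosed by pin tool the next day, with either a single drug or a fixed anchor-drug dose combined with five library-drug doses (not always all listed) spaced in √10 steps. Five days later, one step fixed the cells and stained their nuclei (final 0.05% Triton X-100, 1% formaldehyde, 1 ug/ml Hoechst), and nuclei were counted on 4× images. Relative viability is the nuclei count in treated wells divided by the count in vehicle wells, and each value is the median of duplicate plates.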
# Trametinib + Vorinostat = compound: CC(=O)Nc1cccc(-n2c(=O)n(C3CC3)c(=O)c3c(Nc4ccc(I)cc4F)n(C)c(=O)c(C)c32)c1 [Trametinib] + O=C(CCCCCCC(=O)Nc1ccccc1)NO [Vorinostat] (partner 1 µM)
# Procedure, shortened: as §1
# [1] = compound: CN1C=C(C2=CC=CC=C21)/C=C\3/C4=C(C=CC=N4)NC3=O + CCNC(=O)c1noc(-c2cc(C(C)C)c(O)cc2O)c1-c1ccc(CN2CCOCC2)cc1 [Luminespib] (partner 0.01 µM)
# Procedure, shortened: as §1
# [2] = compound: CN1C=C(C2=CC=CC=C21)/C=C\3/C4=C(C=CC=N4)NC3=O + N=C(N)NC(=N)NCCc1ccccc1 [Phenformin] (partner 250 µM)
# Procedure, shortened: as §1
cell line,measurement,setting,value
COR-L23,relative viability,Trametinib + Phenformin; first compound 0.0025 µM,0.479
same,relative viability,Trametinib + Phenformin; first compound 0.007906 µM,0.437
same,relative viability,Trametinib + Phenformin; first compound 0.025 µM,0.384
same,relative viability,Trametinib + Phenformin; first compound 0.07906 µM,0.388
same,relative viability,Trametinib + Phenformin; first compound 0.25 µM,0.269
same,relative viability,Trametinib + Vorinostat; first compound 0.0025 µM,0.463
same,relative viability,Trametinib + Vorinostat; first compound 0.007906 µM,0.465
same,relative viability,Trametinib + Vorinostat; first compound 0.025 µM,0.529
same,relative viability,Trametinib + Vorinostat; first compound 0.07906 µM,0.421
same,relative viability,Trametinib + Vorinostat; first compound 0.25 µM,0.312
same,relative viability,[1]; first compound 0.02 µM,0.623
same,relative viability,[1]; first compound 0.06325 µM,0.632
same,relative viability,[1]; first compound 0.2 µM,0.702
same,relative viability,[1]; first compound 0.6325 µM,0.699
same,relative viability,[1]; first compound 2 µM,0.789
same,relative viability,[2]; first compound 0.02 µM,0.429
same,relative viability,[2]; first compound 0.06325 µM,0.396
same,relative viability,[2]; first compound 0.2 µM,0.394
same,relative viability,[2]; first compound 0.6325 µM,0.48
same,relative viability,[2]; first compound 2 µM,0.441
NCI-H3122,relative viability,Trametinib + Phenformin; first compound 0.0025 µM,0.381
same,relative viability,Trametinib + Phenformin; first compound 0.007906 µM,0.296
same,relative viability,Trametinib + Phenformin; first compound 0.025 µM,0.282
same,relative viability,Trametinib + Phenformin; first compound 0.07906 µM,0.243
same,relative viability,Trametinib + Phenformin; first compound 0.25 µM,0.233
same,relative viability,Trametinib + Vorinostat; first compound 0.0025 µM,0.978
same,relative viability,Trametinib + Vorinostat; first compound 0.007906 µM,0.678
same,relative viability,Trametinib + Vorinostat; first compound 0.025 µM,0.204
same,relative viability,Trametinib + Vorinostat; first compound 0.07906 µM,0.361
same,relative viability,Trametinib + Vorinostat; first compound 0.25 µM,0.518
same,relative viability,[1]; first compound 0.02 µM,0.0819
same,relative viability,[1]; first compound 0.06325 µM,0.0768
same,relative viability,[1]; first compound 0.2 µM,0.0923
same,relative viability,[1]; first compound 0.6325 µM,0.0892
same,relative viability,[1]; first compound 2 µM,0.0964
same,relative viability,[2]; first compound 0.02 µM,0.347
same,relative viability,[2]; first compound 0.06325 µM,0.333
same,relative viability,[2]; first compound 0.6325 µM,0.375
same,relative viability,[2]; first compound 2 µM,0.355
NCI-H2170,relative viability,Trametinib + Phenformin; first compound 0.0025 µM,0.351
same,relative viability,Trametinib + Phenformin; first compound 0.007906 µM,0.414
same,relative viability,Trametinib + Phenformin; first compound 0.025 µM,0.399
same,relative viability,Trametinib + Phenformin; first compound 0.07906 µM,0.357
same,relative viability,Trametinib + Phenformin; first compound 0.25 µM,0.333
same,relative viability,Trametinib + Vorinostat; first compound 0.0025 µM,0.821
same,relative viability,Trametinib + Vorinostat; first compound 0.007906 µM,0.723
same,relative viability,Trametinib + Vorinostat; first compound 0.07906 µM,0.73
same,relative viability,Trametinib + Vorinostat; first compound 0.25 µM,0.803
same,relative viability,[1]; first compound 0.02 µM,0.623
same,relative viability,[1]; first compound 0.06325 µM,0.616
same,relative viability,[1]; first compound 0.2 µM,0.626
same,relative viability,[1]; first compound 0.6325 µM,0.778
same,relative viability,[1]; first compound 2 µM,0.738
same,relative viability,[2]; first compound 0.02 µM,0.354
same,relative viability,[2]; first compound 0.06325 µM,0.366
same,relative viability,[2]; first compound 0.2 µM,0.327
same,relative viability,[2]; first compound 0.6325 µM,0.405
same,relative viability,[2]; first compound 2 µM,0.4
NCI-H1793,relative viability,Trametinib + Phenformin; first compound 0.0025 µM,0.329
same,relative viability,Trametinib + Phenformin; first compound 0.007906 µM,0.314
same,relative viability,Trametinib + Phenformin; first compound 0.025 µM,0.283
same,relative viability,Trametinib + Phenformin; first compound 0.07906 µM,0.176
same,relative viability,Trametinib + Phenformin; first compound 0.25 µM,0.219
same,relative viability,Trametinib + Vorinostat; first compound 0.0025 µM,0.579
same,relative viability,Trametinib + Vorinostat; first compound 0.007906 µM,0.432
same,relative viability,Trametinib + Vorinostat; first compound 0.025 µM,0.317
same,relative viability,Trametinib + Vorinostat; first compound 0.07906 µM,0.317
same,relative viability,Trametinib + Vorinostat; first compound 0.25 µM,0.221
same,relative viability,[1]; first compound 0.02 µM,0.228
same,relative viability,[1]; first compound 0.06325 µM,0.202
same,relative viability,[1]; first compound 0.2 µM,0.204
same,relative viability,[1]; first compound 0.6325 µM,0.186
same,relative viability,[1]; first compound 2 µM,0.189
same,relative viability,[2]; first compound 0.02 µM,0.393
same,relative viability,[2]; first compound 0.06325 µM,0.41
same,relative viability,[2]; first compound 0.2 µM,0.314
same,relative viability,[2]; first compound 0.6325 µM,0.403
same,relative viability,[2]; first compound 2 µM,0.368
BEN,relative viability,Trametinib + Phenformin; first compound 0.0025 µM,0.264
same,relative viability,Trametinib + Phenformin; first compound 0.007906 µM,0.258
same,relative viability,Trametinib + Phenformin; first compound 0.025 µM,0.247
same,relative viability,Trametinib + Phenformin; first compound 0.07906 µM,0.278
same,relative viability,Trametinib + Phenformin; first compound 0.25 µM,0.275
same,relative viability,Trametinib + Vorinostat; first compound 0.0025 µM,0.62
same,relative viability,Trametinib + Vorinostat; first compound 0.007906 µM,0.57
same,relative viability,Trametinib + Vorinostat; first compound 0.025 µM,0.49
same,relative viability,Trametinib + Vorinostat; first compound 0.07906 µM,0.57
same,relative viability,Trametinib + Vorinostat; first compound 0.25 µM,0.624
same,relative viability,[1]; first compound 0.02 µM,0.286
same,relative viability,[1]; first compound 0.06325 µM,0.394
same,relative viability,[1]; first compound 0.6325 µM,0.357
same,relative viability,[1]; first compound 2 µM,0.281
same,relative viability,[2]; first compound 0.02 µM,0.264
same,relative viability,[2]; first compound 0.06325 µM,0.29
same,relative viability,[2]; first compound 0.6325 µM,0.255
same,relative viability,[2]; first compound 2 µM,0.242
NCI-H647,relative viability,Trametinib + Phenformin; first compound 0.0025 µM,0.554
same,relative viability,Trametinib + Phenformin; first compound 0.007906 µM,0.561
same,relative viability,Trametinib + Phenformin; first compound 0.025 µM,0.507
same,relative viability,Trametinib + Phenformin; first compound 0.07906 µM,0.333
same,relative viability,Trametinib + Phenformin; first compound 0.25 µM,0.148
same,relative viability,Trametinib + Vorinostat; first compound 0.0025 µM,0.634
same,relative viability,Trametinib + Vorinostat; first compound 0.007906 µM,0.562
same,relative viability,Trametinib + Vorinostat; first compound 0.025 µM,0.642
same,relative viability,Trametinib + Vorinostat; first compound 0.07906 µM,0.465
same,relative viability,Trametinib + Vorinostat; first compound 0.25 µM,0.196
same,relative viability,[1]; first compound 0.02 µM,0.177
same,relative viability,[1]; first compound 0.06325 µM,0.124
same,relative viability,[1]; first compound 0.2 µM,0.192
same,relative viability,[1]; first compound 0.6325 µM,0.128
same,relative viability,[1]; first compound 2 µM,0.324
same,relative viability,[2]; first compound 0.02 µM,0.387
same,relative viability,[2]; first compound 0.06325 µM,0.387
same,relative viability,[2]; first compound 0.2 µM,0.343
same,relative viability,[2]; first compound 0.6325 µM,0.479
same,relative viability,[2]; first compound 2 µM,0.528
PC-14,relative viability,Trametinib + Phenformin; first compound 0.0025 µM,0.568
same,relative viability,Trametinib + Phenformin; first compound 0.007906 µM,0.531
same,relative viability,Trametinib + Phenformin; first compound 0.025 µM,0.322
same,relative viability,Trametinib + Phenformin; first compound 0.07906 µM,0.212
same,relative viability,Trametinib + Phenformin; first compound 0.25 µM,0.102
same,relative viability,Trametinib + Vorinostat; first compound 0.0025 µM,0.781
same,relative viability,Trametinib + Vorinostat; first compound 0.007906 µM,0.599
same,relative viability,Trametinib + Vorinostat; first compound 0.025 µM,0.535
same,relative viability,Trametinib + Vorinostat; first compound 0.07906 µM,0.438
same,relative viability,Trametinib + Vorinostat; first compound 0.25 µM,0.0917
same,relative viability,[1]; first compound 0.02 µM,0.212
same,relative viability,[1]; first compound 0.06325 µM,0.138
same,relative viability,[1]; first compound 0.6325 µM,0.173
same,relative viability,[1]; first compound 2 µM,0.135
same,relative viability,[2]; first compound 0.02 µM,0.54
same,relative viability,[2]; first compound 0.06325 µM,0.482
same,relative viability,[2]; first compound 0.6325 µM,0.575
same,relative viability,[2]; first compound 2 µM,0.447
